The values that follow come from patent US9221791B2, “Metalloenzyme inhibitor compounds” (Viamet Pharmaceuticals, Inc., priority 2011, dated 2015).

SMILES strings stand for the structures. In brackets after ≈: the same amount, converted by molar mass.

The subject of one test is Septoria tritici (ATCC 26517). The test is described as follows: Minimum Inhibitory Concentration (MIC) (Septoria tritici), CLSI-based microdilution. The following applies: S. tritici ATCC 26517; 22° C. for seven days; 50% reduction in growth. Format: cell-based. The method, then:
C. Minimum Inhibitory Concentration (MIC) (Septoria tritici)
Compounds of the present disclosure were assessed for their ability to inhibit the growth of a common strain of the fungal plant pathogen Septoria tritici (ATCC 26517) using a procedure based on a Clinical and Laboratory Standards Institute (CLSI) microdilution assay protocol for filamentous fungi.
Stock solutions of the test compounds and standards were prepared in DMSO at 6400 μg/mL. Each stock solution was used to prepare a 2-fold dilution series ranging from 16 to 0.016 μg/mL (total of 11 compound concentrations) in RPMI-1640 (Roswell Park Memorial Institute) medium containing 3-(N-morpholino)propanesulfonic acid (MOPS) buffer and 2% DMSO. A 100 μL aliquot of the dilutions was added to columns 1 (16 μg/mL compound) through 11 (0.016 μg/mL compound) of a 96-well microtiter plate. This format was replicated in a second row of the microtiter plate. Thus, each microtiter plate could include 11 concentrations of four test or control compounds replicated twice. A 100 μL aliquot of RPMI-1640/MOPS/2% DMSO medium was added to column 12 (no compound control) of the microtiter plate.
A fresh culture of S. tritici was used to prepare a solution of approximately 5×10^4 colony-forming units per milliliter (cfu/mL) in RPMI/MOPS medium without DMSO. A 100 µL aliquot of this solution was added to all 96 wells in the microtiter plate. […] The assay plates were incubated at 22° C. for seven days in the dark without shaking.
In each case of Table 3 the Septoria rating scale is as follows: […]
For orientation: Dilution methods test growth across graded concentrations, often in twofold steps.
`OC(Cn1cnnn1)(c1ccc(F)cc1F)C(F)(F)c1ccc(-c2ccc(Cl)nc2)cn1` (stereo not drawn) [30(+), 1-(6′-Chloro-[3,3′-bipyridin]-6-yl)-2-(2,4-difluorophenyl)-1,1-difluoro-3-(1H-tetrazol-1-yl)propan-2-ol]: the “Septoria Rating (MIC)” value was “B (>1.5-1.5)”.
As for `OC(Cn1cnnn1)(c1ccc(F)cc1F)C(F)(F)c1ccc(-c2ccc(F)nc2)cn1` (stereo not drawn) [31(+), 2-(2,4-Difluorophenyl)-1,1-difluoro-1-(6′-fluoro-[3,3′-bipyridin]-6-yl)-3-(1H-tetrazol-1-yl)propan-2-ol], the “Septoria Rating (MIC)” value is reported as “A (≦0.5)”.

Still in this test, the particulars now being: Zymoseptoria tritici, ATCC26517, 168 h, S. tritici ATCC 26517; 22° C. for seven days; 50% reduction in growth; read-out: Septoria Rating (MIC).
The term MIC denotes the smallest concentration in the dilution series that meets the test's criterion for growth inhibition. Consider `OC(Cn1cnnn1)(c1ccc(F)cc1F)C(F)(F)c1cc(F)ccn1` (single isomer, unassigned) [ent-13, 2-(2,4-Difluorophenyl)-1,1-difluoro-1-(4-fluoropyridin-2-yl)-3-(1H-tetrazol-1-yl)propan-2-ol], for which the MIC was determined as 1.5 µg/mL (≈ 4.04 µM).
Consider `N#C/C=C/c1ccc(C(F)(F)C(O)(Cn2cnnn2)c2ccc(F)cc2F)nc1` (stereo not drawn) [Compound 3, (E)-3-(6-(2-(2,4-Difluorophenyl)-1,1-difluoro-2-hydroxy-3-(1H-tetrazol-1-yl)propyl)pyridin-3-yl)acrylonitrile], for which the MIC came to 1.5 µg/mL (≈ 3.71 µM).
`CCOC(=O)CCc1ccc(C(F)(F)C(O)(Cn2cnnn2)c2ccc(F)cc2F)nc1` (stereo not drawn) [Compound 5, Ethyl 3-(6-(2-(2,4-difluorophenyl)-1,1-difluoro-2-hydroxy-3-(1H-tetrazol-1-yl)propyl)pyridin-3-yl)propanoate]: the MIC is at most 0.5 µg/mL.
For `CC(=O)/C=C/c1ccc(C(F)(F)C(O)(Cn2cnnn2)c2ccc(F)cc2F)nc1` (stereo not drawn) [Compound 7, (E)-4-(6-(2-(2,4-Difluorophenyl)-1,1-difluoro-2-hydroxy-3-(1H-tetrazol-1-yl)propyl)pyridin-3-yl)but-3-en-2-one], the minimal inhibitory concentration (MIC) lay within 1.5 to 4 µg/mL (≈ 3.56 to 9.49 µM).
On to `CC(=O)CCc1ccc(C(F)(F)C(O)(Cn2cnnn2)c2ccc(F)cc2F)nc1` (stereo not drawn) [Compound 8, 4-(6-(2-(2,4-Difluorophenyl)-1,1-difluoro-2-hydroxy-3-(1H-tetrazol-1-yl)propyl)pyridin-3-yl)butan-2-one], for which the MIC is 1.5 µg/mL (≈ 3.54 µM).
As for `OC(Cn1cnnn1)(c1ccc(F)cc1F)C(F)(F)c1ccc(-n2nccn2)cn1` (stereo not drawn) [Compound 9, 1-(5-(2H-1,2,3-Triazol-2-yl)pyridin-2-yl)-2-(2,4-difluorophenyl)-1,1-difluoro-3-(1H-tetrazol-1-yl)propan-2-ol], the minimum inhibitory concentration (MIC) was in the range of 1.5 to 4 µg/mL (≈ 3.57 to 9.52 µM).
On to `OC(Cn1cnnn1)(c1ccc(Cl)cc1F)C(F)(F)c1ccccn1` (stereo not drawn) [Compound 11, 2-(4-Chloro-2-fluorophenyl)-1,1-difluoro-1-(pyridin-2-yl)-3-(1H-tetrazol-1-yl)propan-2-ol], for which the minimal inhibitory concentration (MIC) lay within 1.5 to 4 µg/mL (≈ 4.06 to 10.8 µM).
`OC(Cn1cnnn1)(c1ccc(F)cc1F)C(F)(F)c1ccc(Cl)cn1` (stereo not drawn) [Compound 12, 1-(5-Chloropyridin-2-yl)-2-(2,4-difluorophenyl)-1,1-difluoro-3-(1H-tetrazol-1-yl)propan-2-ol]: the minimal inhibitory concentration (MIC) amounted to 1.5 µg/mL (≈ 3.87 µM).
Consider `OC(Cn1cnnn1)(c1ccc(F)cc1F)C(F)(F)c1cc(Cl)ccn1` (stereo not drawn) [Compound 14, 1-(4-Chloropyridin-2-yl)-2-(2,4-difluorophenyl)-1,1-difluoro-3-(1H-tetrazol-1-yl)propan-2-ol], for which the MIC was in the range of 1.5 to 4 µg/mL (≈ 3.87 to 10.3 µM).
In the case of `OC(Cn1cnnn1)(c1ccc(F)cc1F)C(F)(F)c1ccc(C(F)(F)F)cn1` (stereo not drawn) [Compound 19, 2-(2,4-Difluorophenyl)-1,1-difluoro-3-(1H-tetrazol-1-yl)-1-(5-(trifluoromethyl)pyridin-2-yl)propan-2-ol], the minimal inhibitory concentration (MIC) is 1.5 to 4 µg/mL (≈ 3.56 to 9.49 µM).
The same measure, in the same setting: the value for `OC(Cn1cnnn1)(c1ccc(F)cc1F)C(F)(F)c1cccc(Br)n1` (stereo not drawn) [Compound 20, 1-(6-Bromopyridin-2-yl)-2-(2,4-difluorophenyl)-1,1-difluoro-3-(1H-tetrazol-1-yl)propan-2-ol] was 1.5 to 4 µg/mL (≈ 3.47 to 9.26 µM).
Same read-out and setting: the value for `OC(Cn1cnnn1)(c1cc(F)ccc1F)C(F)(F)c1ccc(Br)cn1` (stereo not drawn) [Compound 21, 1-(5-Bromopyridin-2-yl)-2-(2,5-difluorophenyl)-1,1-difluoro-3-(1H-tetrazol-1-yl)propan-2-ol] was over 4 µg/mL.
In the case of `OC(Cn1cnnn1)(c1ccc(C(F)(F)F)cc1F)C(F)(F)c1ccc(Br)cn1` (stereo not drawn) [Compound 23, 1-(5-Bromopyridin-2-yl)-1,1-difluoro-2-(2-fluoro-4-(trifluoromethyl)phenyl)-3-(1H-tetrazol-1-yl)propan-2-ol], the MIC was in the range of 1.5 to 4 µg/mL (≈ 3.11 to 8.3 µM).
As for `OC(Cn1cnnn1)(c1ccc(F)cc1F)C(F)(F)c1cc(Br)ccn1` (stereo not drawn) [Compound 24, 1-(4-Bromopyridin-2-yl)-2-(2,4-difluorophenyl)-1,1-difluoro-3-(1H-tetrazol-1-yl)propan-2-ol], the MIC is 1.5 to 4 µg/mL (≈ 3.47 to 9.26 µM).
As to `OC(Cn1cnnn1)(c1ccc(F)cc1F)C(F)(F)c1ccc(-c2ccc(C(F)(F)F)nc2)cn1` (stereo not drawn) [Compound 35, 2-(2,4-Difluorophenyl)-1,1-difluoro-3-(1H-tetrazol-1-yl)-1-(6′-(trifluoromethyl)-[3,3′-bipyridin]-6-yl)propan-2-ol], the minimal inhibitory concentration (MIC) is 1.5 to 4 µg/mL (≈ 3.01 to 8.03 µM).
Same read-out and setting: the value for `COc1ncc(-c2ccc(C(F)(F)C(O)(Cn3cnnn3)c3ccc(F)cc3F)nc2)cn1` (stereo not drawn) [Compound 37, 2-(2,4-Difluorophenyl)-1,1-difluoro-1-(5-(2-methoxypyrimidin-5-yl)pyridin-2-yl)-3-(1H-tetrazol-1-yl)propan-2-ol] was 1.5 to 4 µg/mL (≈ 3.25 to 8.67 µM); that for `COC(=O)CSc1ccc(C(F)(F)C(O)(Cn2cnnn2)c2ccc(F)cc2F)nc1` (stereo not drawn) [Compound 41, Methyl 2-((6-(2-(2,4-difluorophenyl)-1,1-difluoro-2-hydroxy-3-(1H-tetrazol-1-yl)propyl)pyridin-3-yl)thio)acetate] was over 4 µg/mL.
For `OC(Cn1cnnn1)(c1ccc(F)cc1F)C(F)(F)c1ccc(/C=C/Cn2cnnn2)cn1` (stereo not drawn) [Compound 42, (E)-1-(5-(3-(1H-Tetrazol-1-yl)prop-1-en-1-yl)pyridin-2-yl)-2-(2,4-difluorophenyl)-1,1-difluoro-3-(1H-tetrazol-1-yl)propan-2-ol], the MIC was over 4 µg/mL.
On to `OC/C=C/c1ccc(C(F)(F)C(O)(Cn2cnnn2)c2ccc(F)cc2F)nc1` (stereo not drawn) [Compound 43, (E)-3-(6-(2-(2,4-Difluorophenyl)-1,1-difluoro-2-hydroxy-3-(1H-tetrazol-1-yl)propyl)pyridin-3-yl)prop-2-en-1-ol], for which the minimum inhibitory concentration (MIC) was in the range of 1.5 to 4 µg/mL (≈ 3.66 to 9.77 µM).
Turning to `OCCCc1ccc(C(F)(F)C(O)(Cn2cnnn2)c2ccc(F)cc2F)nc1` (stereo not drawn) [Compound 44, 3-(6-(2-(2,4-Difluorophenyl)-1,1-difluoro-2-hydroxy-3-(1H-tetrazol-1-yl)propyl)pyridin-3-yl)propan-1-ol], the minimum inhibitory concentration (MIC) lay in the range of 1.5 to 4 µg/mL (≈ 3.65 to 9.72 µM).
For the compound `CC(O)/C=C/c1ccc(C(F)(F)C(O)(Cn2cnnn2)c2ccc(F)cc2F)nc1` (stereo not drawn) [Compound 46, (E)-4-(6-(2-(2,4-Difluorophenyl)-1,1-difluoro-2-hydroxy-3-(1H-tetrazol-1-yl)propyl)pyridin-3-yl)but-3-en-2-ol], the MIC is 1.5 to 4 µg/mL (≈ 3.54 to 9.45 µM).
Take `CC(O)CCc1ccc(C(F)(F)C(O)(Cn2cnnn2)c2ccc(F)cc2F)nc1` (stereo not drawn) [Compound 47, 4-(6-(2-(2,4-Difluorophenyl)-1,1-difluoro-2-hydroxy-3-(1H-tetrazol-1-yl)propyl)pyridin-3-yl)butan-2-ol]: the MIC lay within 1.5 to 4 µg/mL (≈ 3.53 to 9.4 µM).
As to `COC/C=C/c1ccc(C(F)(F)C(O)(Cn2cnnn2)c2ccc(F)cc2F)nc1` (stereo not drawn) [Compound 48, (E)-2-(2,4-Difluorophenyl)-1,1-difluoro-1-(5-(3-methoxyprop-1-en-1-yl)pyridin-2-yl)-3-(1H-tetrazol-1-yl)propan-2-ol], the MIC came out at 1.5 µg/mL (≈ 3.54 µM).
On the same count and under the same terms, the value for `COC/C=C\c1ccc(C(F)(F)C(O)(Cn2cnnn2)c2ccc(F)cc2F)nc1` (stereo not drawn) [Compound 49, (Z)-2-(2,4-Difluorophenyl)-1,1-difluoro-1-(5-(3-methoxyprop-1-en-1-yl)pyridin-2-yl)-3-(1H-tetrazol-1-yl)propan-2-ol] was at most 0.5 µg/mL; that for `COCCCc1ccc(C(F)(F)C(O)(Cn2cnnn2)c2ccc(F)cc2F)nc1` (stereo not drawn) [Compound 50, 2-(2,4-Difluorophenyl)-1,1-difluoro-1-(5-(3-methoxypropyl)pyridin-2-yl)-3-(1H-tetrazol-1-yl)propan-2-ol] was 1.5 µg/mL (≈ 3.53 µM); that for `CC(C)OCCCc1ccc(C(F)(F)C(O)(Cn2cnnn2)c2ccc(F)cc2F)nc1` (stereo not drawn) [Compound 55, 2-(2,4-Difluorophenyl)-1,1-difluoro-1-(5-(3-isopropoxypropyl)pyridin-2-yl)-3-(1H-tetrazol-1-yl)propan-2-ol] was at most 0.5 µg/mL.
As to `OC(c1ccc(C(F)(F)C(O)(Cn2cnnn2)c2ccc(F)cc2F)nc1)C(F)(F)F` (stereo not drawn) [Compound 56, (2-(2,4-Difluorophenyl)-1,1-difluoro-3-(1H-tetrazol-1-yl)-1-(5-(2,2,2-trifluoro-1-hydroxyethyl)pyridin-2-yl)propan-2-ol)], the MIC is over 4 µg/mL.
Regarding `OC(Cn1cnnn1)(c1ccc(F)cc1F)C(F)(F)c1ccc(-c2cnc(Cl)nc2)cn1` (stereo not drawn) [Compound 57, 1-(5-(2-Chloropyrimidin-5-yl)pyridin-2-yl)-2-(2,4-difluorophenyl)-1,1-difluoro-3-(1H-tetrazol-1-yl)propan-2-ol], the MIC was over 4 µg/mL.
